Data on 7 compounds can be found in patent US7855290B2, “Pyridine derivatives and pyrimidine derivatives (3)” (Eisai R&D Management Co., Ltd., priority 2005, dated 2010).

Assay [1] deals with T1, His6-HGFR (HGFR cytoplasmic domain) (Homo sapiens, UniProt P08581).
T1 construct: made in house; host or cells: Sf9 insect cells (Spodoptera frugiperda), baculovirus, pFastBac-HT vector
As to the kind of experiment: Inhibitory activity against HGFR tyrosine kinase activity (HTRF). It is filed as biochemical. The conditions noted are these: biotin-poly(GT), ATP, 30° C. 10 min. The text has this:
The cytoplasmic domain of HGFR (Genbank Accession No. J02958) is a 1.3 kb DNA fragment beginning with Lys974 and including a stop codon, and described by Park et al. (Proc. Natl. Acad. Sci. U.S.A. 84(18), 6379-6383, 1987). The DNA fragment was isolated from the human placental cDNA library (purchased from Clontech) by PCR (TaKaRa Ex Taq™ Kit, purchased from TaKaRa) using two kinds of primers (SEQ ID NO: 1,5′-[…]-3′ and SEQ ID NO: 2,5′-[…]-3′, purchased from Invitrogen). The DNA fragment was cloned into a baculovirus transplace vector (pFastBac™-HT (purchased from GIBCO BRL)) to produce a recombinant construct. […] EGFR was purchased from Sigma (Production No. E-2645).
To the suspension of Sf9 cells (3×10^8 cells) in SF-900II medium (purchased from Invitrogen) containing 2% FBS was added a solution of HGFR transfected baculovirus above (4 ml), followed by a shaking culture at 27° C. for 48 hrs. The cells infected with the HGFR transfected baculovirus were centrifuged at 1,000 rpm, 4° C. for 5 min to remove the supernatant. The precipitated infected cells were suspended in 80 ml of ice-cold PBS, and centrifuged at 1,000 rpm, 4° C. for 5 min to remove the supernatant. The precipitated infected cells were suspended in 40 ml of ice-cold Lysis Buffer (50 mM Tris-HCl (pH 8.5), 5 mM 2-mercaptoethanol, 100 mM KCl, 1 mM PMSF and 1% (v/v) NP-40). The suspension was centrifuged at 12,000 rpm, 4° C. for 30 min to provide a supernatant.
The supernatant was loaded onto an Ni-NTA agarose column (3 ml, purchased from Qiagen) equilibrated with 30 ml of Buffer A (20 mM Tris-HCl (pH 8.5), 5 mM 2-mercaptoethanol, 500 mM KCl, 20 mM imidazole and 10% (v/v) glycerol). The column was washed with 30 ml of Buffer A, 6 ml of Buffer B (20 mM Tris-HCl (pH 8.5), 5 mM 2-mercaptoethanol, 1 M KCl, and 10% (v/v) glycerol) and 6 ml of Buffer A in this order. Then, the column was eluted with 6 ml of Buffer C (20 mM Tris-HCl (pH 8.5), 5 mM 2-mercaptoethanol, 100 mM KCl, 100 mM imidazole, and 10% (v/v) glycerol) to provide a fraction. The fraction was entrapped in a dialysis membrane (purchased from Spectrum Laboratories), dialyzed at 4° C. overnight with 1 L of dialysis buffer (20 mM Tris-HCl (pH 7.5), 10% (v/v) glycerol, 1 mM dithiothreitol, 0.1 mM Na3VO4 and 0.1 mM EGTA), and stored at −80° C. until used. […] The VEGFR2 cytoplasmic domain, the FGFR1 cytoplasmic domain, and the PDGFRβ cytoplasmic domain were fused with six histidine at the N terminus by the similar method to produce respective recombinant proteins (His6-VEGFR2, His6-FGFR1, and His6-PDGFRβ).
To each well of a 96-well round plate (purchased from NUNC, Production No. 163320) were added 10 μl of a solution for kinase reaction (200 mM Hepes (pH 7.4), 80 mM MgCl2, 16 mM MnCl2 and 2 mM Na3VO4), 250 ng of biotinylated poly(Glu4: Tyr1) (biotin-poly(GT), purchased from Japan Schering) (6 μl, 15-fold diluted with distilled water), 30 ng of His6-HGFR (10 μl, 60-fold diluted with 0.4% BSA) and a test substance dissolved in dimethylsulfoxide (4 μl, 100-fold diluted with 0.1% BSA) to mess up to 30 μl. To the well was added 10 μl of 4 μM ATP (purchased from Sigma) diluted with distilled water to incubate at 30° C. for 10 min, followed by adding 10 μl of 500 mM EDTA (pH 8.0) (purchased from Wako Pure Chemicals) to provide a kinase reaction solution.
The tyrosine-phosphorylated biotin-poly(GT) was detected using the Homogenous Time-Resolved Fluorescence (HTRF) method (Analytical Biochemistry, 269, 94-104, 1999).

The target of another assay is T2, HGFR (Homo sapiens, UniProt P08581).
T2 construct: endogenous in cells; host or cells: MKN-45 human gastric cancer cells
As to the kind of experiment: Inhibitory activity against the HGFR autophosphorylation using ELISA (MKN-45 cells). Particulars: 1 hr with test substance. It is filed as cell-based. How it is done:
Human gastric cancer cells (MKN-45) were suspended in a 1% FBS-containing RPMI1640 medium (purchased from Sigma). The cell suspension (1×10^5 cells/ml) was put in a 96-well plate for cell culture (purchased from NUNC, Production No. 167008) at 0.1 ml/well, and then cultured in a 5% CO2 incubator (37° C.) overnight. After the culture, from each well was removed the supernatant, followed by adding 0.05 ml of a 1% FBS-containing RPMI1640 medium. Then, the well was supplied with 0.05 ml of the test substance dissolved in dimethyl sulfoxide (diluted with a 1% FBS-containing RPMI1640 medium), followed by culturing in a 5% CO2 incubator (37° C.) for 1 hr. From each well was removed the supernatant, and each well was washed with 150 μl of PBS, followed by adding 100 μl of a lysis buffer (50 mM Hepes (pH 7.4), 150 mM NaCl, 10% (v/v) glycerol, 1% Triton X-100, 1.5 mM MgCl2, 1 mM EDTA (pH 8.0), 100 mM NaF, 1 mM PMSF, 10 μg/ml Aprotinin, 50 μg/ml Leupeptin, 1 μg/ml Pepstatin A and 1 mM Na3VO4). The plate was shaken at 4° C. for 1 hr to prepare the cell extract.
To a 96-well plate for ELISA (purchased from COSTAR, Production No. 3369) was added 50 μl of 60 mM bicarbonate buffer (pH 9.6) containing 50 μg/ml of an anti-phosphotyrosine antibody (PY20, purchased from Transduction Laboratory, Production No. P-11120). The plate was incubated at 4° C. overnight.
Each well of the plate prepared in 2. was washed three times with 200 μl of PBS, and supplied with 150 μl of 3% BSA/PBS, followed by incubating at room temperature for 2 hrs. Each well was washed three times with 200 μl of PBS, and supplied with 50 μl of the above cell extract, followed by incubating at 4° C. overnight. After the incubation, each well was washed three times with 250 μl of a washing solution (0.1% BSA, 20 mM Tris-HCl (pH 7.6), 137 mM NaCl, and 0.05% Tween-20), and supplied with 70 μl of anti-HGFR antibody (h-Met(C-12), purchased from Santa Cruz, Production No. sc-10) 2,000-fold diluted with a reaction solution (1% BSA, 20 mM Tris-HCl (pH 7.6), 137 mM NaCl and 0.05% Tween-20), followed by incubating at room temperature for 1 hr. The well was washed three times with 250 μl of the washing solution, and supplied with 70 μl of peroxidase-labelled anti-rabbit IgG antibody (purchased from Cell Signaling, Production No. 7074) 2,000-fold diluted with the reaction solution, followed by incubating at room temperature for 1 hr. Each well was washed three times with 250 μl of the washing solution, and supplied with 70 μl of TMB Membrane Peroxidase Substrate (purchased from Funakoshi, Production No. 50-5077-03), followed by incubating at room temperature for 10 min. Each well was supplied with 70 μl of 1 M phosphoric acid, and using the Plate Reader MTP-500 (Corona Electric), the absorbance of the well was instantly determined at a measurement wavelength of 450 nm. While defining the absorbance of a well supplied with the cell extract having no test substance as 100% HGFR autophosphorylation activity, and the absorbance of a well supplied with 50 μl of the lysis buffer as 0% HGFR autophosphorylation activity, the HGFR autophosphorylation activity (%) was calculated for each well.
In general terms: An ELISA detects its analyte on a solid surface through an enzyme-linked reagent.

Assay [2] concerns Human gastric cancer cells (MKN-45). As to the kind of experiment: Inhibitory activity against the proliferation of human gastric cancer cells (MKN-45). It is filed as cell-based. The conditions noted are these: 72 h, MKN-45, 1% FBS RPMI1640, 3 days, Cell Counting Kit-8. How it is done: Human gastric cancer cells (MKN-45) were suspended in a 1% FBS-containing RPMI1640 medium (purchased from Sigma). The cell suspension (1×10^4 cells/ml) was added in a 96-well plate for cell culture (purchased from NUNC, Production No. 167008) at 0.1 ml/well, and then cultured in a 5% CO2 incubator (37° C.) overnight. After the culture, each well was supplied with 0.1 ml of a test substance diluted with a 1% FBS-containing RPMI1640 medium, followed by culturing in a 5% CO2 incubator (37° C.) for 3 days. After the culture, each well was supplied with 10 μl of Cell Counting Kit-8 (purchased from DOJINDO, Production No. 343-07623), followed by incubation in a 5% CO2 incubator (37° C.) for about 1.5 hrs. After the incubation, using the Plate Reader MTP-500 (Corona Electric), the absorbance of each well was determined at a measurement wavelength of 450 nm and a reference wavelength of 660 nm.
A general note: Formazan colour is commonly taken as a measure of viable cells.

T2 sequence (P08581 25-1390): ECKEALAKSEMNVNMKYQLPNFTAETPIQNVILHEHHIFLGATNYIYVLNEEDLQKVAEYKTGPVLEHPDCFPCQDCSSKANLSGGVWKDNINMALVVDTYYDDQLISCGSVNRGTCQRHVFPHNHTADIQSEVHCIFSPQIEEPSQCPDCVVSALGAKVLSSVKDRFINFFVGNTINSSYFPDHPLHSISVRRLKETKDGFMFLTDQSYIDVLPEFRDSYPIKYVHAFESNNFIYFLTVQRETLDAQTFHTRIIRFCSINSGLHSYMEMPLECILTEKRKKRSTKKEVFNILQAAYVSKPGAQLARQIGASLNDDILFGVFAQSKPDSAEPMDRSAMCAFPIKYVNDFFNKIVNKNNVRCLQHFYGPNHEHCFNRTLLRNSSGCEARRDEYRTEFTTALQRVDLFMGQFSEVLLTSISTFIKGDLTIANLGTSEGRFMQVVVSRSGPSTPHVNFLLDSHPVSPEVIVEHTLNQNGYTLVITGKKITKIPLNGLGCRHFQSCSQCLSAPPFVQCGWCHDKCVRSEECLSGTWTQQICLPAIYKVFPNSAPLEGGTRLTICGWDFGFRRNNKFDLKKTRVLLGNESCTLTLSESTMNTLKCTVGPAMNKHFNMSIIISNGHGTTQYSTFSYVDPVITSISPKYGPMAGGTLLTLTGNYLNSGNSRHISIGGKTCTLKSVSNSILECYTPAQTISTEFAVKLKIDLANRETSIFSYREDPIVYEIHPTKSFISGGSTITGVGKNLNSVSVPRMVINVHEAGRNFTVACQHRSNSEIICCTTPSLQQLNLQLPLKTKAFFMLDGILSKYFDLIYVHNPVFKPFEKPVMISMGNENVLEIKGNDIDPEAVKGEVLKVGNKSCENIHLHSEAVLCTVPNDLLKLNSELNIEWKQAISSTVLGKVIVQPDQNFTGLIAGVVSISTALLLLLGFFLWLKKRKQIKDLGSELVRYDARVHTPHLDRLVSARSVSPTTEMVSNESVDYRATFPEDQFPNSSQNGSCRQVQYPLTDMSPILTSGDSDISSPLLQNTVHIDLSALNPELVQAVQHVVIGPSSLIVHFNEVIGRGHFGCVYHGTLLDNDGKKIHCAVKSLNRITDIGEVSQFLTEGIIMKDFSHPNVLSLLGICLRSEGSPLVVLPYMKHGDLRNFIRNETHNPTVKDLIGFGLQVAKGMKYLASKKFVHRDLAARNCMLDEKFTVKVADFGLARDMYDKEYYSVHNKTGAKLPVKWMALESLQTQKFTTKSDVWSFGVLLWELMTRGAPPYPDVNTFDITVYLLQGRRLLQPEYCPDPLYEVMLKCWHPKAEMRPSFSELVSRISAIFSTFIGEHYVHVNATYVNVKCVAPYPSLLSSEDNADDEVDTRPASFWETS
T1 sequence (P08581 956-1390 limits assumed): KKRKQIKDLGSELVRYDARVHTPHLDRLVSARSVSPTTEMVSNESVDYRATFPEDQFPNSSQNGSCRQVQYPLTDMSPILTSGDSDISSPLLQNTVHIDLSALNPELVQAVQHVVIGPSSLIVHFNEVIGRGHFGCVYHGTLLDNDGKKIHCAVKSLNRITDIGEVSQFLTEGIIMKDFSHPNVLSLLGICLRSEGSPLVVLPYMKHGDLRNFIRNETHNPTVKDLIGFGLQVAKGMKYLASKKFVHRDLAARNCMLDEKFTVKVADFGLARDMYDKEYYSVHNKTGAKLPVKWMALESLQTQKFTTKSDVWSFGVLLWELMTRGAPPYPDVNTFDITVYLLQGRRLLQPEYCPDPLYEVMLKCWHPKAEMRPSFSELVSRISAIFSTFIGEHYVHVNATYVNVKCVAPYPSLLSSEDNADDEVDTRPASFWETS

As for `CN(C)CC1CCN(C(=O)Nc2cc(Oc3ccc(NC(=O)C4(C(=O)Nc5ccc(F)cc5)CCC4)cc3F)ccn2)CC1` [Example 6, N-[4-({2-[({4-[(Dimethylamino)methyl]piperidin-1-yl}carbonyl)amino]pyridin-4-yl}oxy)-3-fluorophenyl]-N′-(4-fluorophenyl)cyclobutane-1,1-dicarboxamide], in assay [1], it took 640 nM to reach half-maximal inhibition (IC50). As for `CN1CCC(N(C)C(=O)Nc2cc(Oc3ccc(NC(=O)C4(C(=O)NCc5ccccc5)CC4)c(F)c3)ccn2)CC1` [Example 49, N-Benzyl-N′-(2-fluoro-4-{[2-({[methyl(1-methylpiperidin-4-yl)amino]carbonyl}amino)pyridin-4-yl]oxy}phenyl)cyclopropane-1,1-dicarboxamide], the IC50 in assay [1] was 180 nM; against HGFR it was 260 nM. On the same counts, the results for `CN1CCC(N(C)C(=O)Nc2cc(Oc3ccc(NC(=O)C4(C(=O)Nc5cccnc5)CC4)c(F)c3)ccn2)CC1` [Example 51, N-(2-Fluoro-4-{[2-({[methyl(1-methylpiperidin-4-yl)amino]carbonyl}amino)pyridin-4-yl]oxy}phenyl)-N′-pyridin-3-ylcyclopropane-1,1-dicarboxamide] are 250 nM and 380 nM. On the same counts, the results for `CN1CCC(N(C)C(=O)Nc2cc(Oc3ccc(NC(=O)C4(C(=O)NC5CCCC5)CC4)c(F)c3)ccn2)CC1` [Example 52, N-Cyclopentyl-N′-(2-fluoro-4-{[2-({[methyl(1-methylpiperidin-4-yl)amino]carbonyl}amino)pyridin-4-yl]oxy}phenyl)cyclopropane-1,1-dicarboxamide] are 160 nM and 170 nM. Turning to `CN1CCC(N(C)C(=O)Nc2cc(Oc3ccc(NC(=O)C4(C(=O)NCC(C)(C)C)CC4)c(F)c3)ccn2)CC1` [Example 53, N-(2,2-Dimethylpropyl)-N′-(2-fluoro-4-{[2-({[methyl(1-methylpiperidin-4-yl)amino]carbonyl}amino)pyridin-4-yl]oxy}phenyl)cyclopropane-1,1-dicarboxamide], the IC50 amounted to 270 nM in assay [1] and 370 nM on HGFR. In assay [2], `O=C(Nc1cc(Oc2cc(F)c(NC(=O)C3(C(=O)Nc4ccc(F)cc4)CC3)cc2F)ccn1)N1CC(O)C1` [Example 91, N-[2,5-Difluoro-4-[(2-{[(3-hydroxyazetidin-1-yl)carbonyl]amino}pyridin-4-yl)oxy]phenyl}1-N′-(4-fluorophenyl)cyclopropane-1,1-dicarboxamide] came in with an IC50 of 5 nM. In turn, `CN1CCC(N(C)C(=O)Nc2cc(Oc3cc(F)c(NC(=O)C4(C(=O)Nc5ccc(F)cc5)CC4)cc3F)ccn2)CC1` [Example 94] displayed an IC50 in assay [2] of 4.9 nM.

Usually IC50 stands for the concentration that gives 50% inhibition. Low values mean inhibition by little substance, high ones a need for much substance.
